What was measured:
[1] = tested on: prostaglandin E2 production in RAW264.7 cells; assay: Inhibition of prostaglandin E2 production induction by LPS (ELISA); type: cell-based; conditions: compound (7), (14) or (17) at final concentration of 50, 100 or 100 μM, respectively
Experimental: RAW264.7 cells were suspended in Dulbecco's modified Eagle's medium (Bio Whittaker, Code. 12-604F) containing 10% fetal calf serum at a concentration of 3×10^5 cells/ml. 500 μl of the suspension was added to each well of a 48-well microtiter plate and the plate was incubated at 37° C. for 6 hours in the presence of 5% CO2. The compound (7), (14) or (17) prepared in Example 1 was added to the well at a final concentration of 50, 100 or 100 μM, respectively. The plate was incubated for additional 5 hours. 10 μl of 50 μg/ml lipopolysaccharide (LPS, Sigma, Code. L-2012) aqueous solution was then added to the well. After the plate was incubated for additional 12 hours, the amount of prostaglandin E2 was measured. As control groups, a group to which LPS was not added and a group to which the compound (7), (14) or (17) was not added were provided.
After cultivation, the amount of prostaglandin E2 in the culture supernatant was measured using Prostaglandin E2 ELISA Kit (Neogen, Code. 404110). All of the measurements were carried out in triplicate.
FIG. 21 illustrates the prostaglandin E2 concentration in the medium obtained by incubating under various culture conditions. In FIG. 21, the horizontal axis represents the culture conditions and the vertical axis represents the prostaglandin E2 concentration (ng/ml).

[2] = tested on: heme oxygenase 1 protein in RAW264.7 cells; assay: Heme oxygenase 1 induction (Western blot); type: cell-based; design: key: − represents no band observed; increase in the intensity of the band is represented as follows: +−<+<++; increase in the intensity of the band is represented as follows: +−<+<++; increase in the intensity of the band is represented as follows: +−<+<++; conditions: 12 hours
Experimental: RAW264.7 cells (ATCC TIB 71) were suspended in Dulbecco's modified Eagle's medium (Bio Whittaker, 12-604F) containing 10% fetal calf serum (Gibco) at a concentration of 3×10^5 cells/ml. 5 ml of the suspension was added to each well of a 6-well microtiter plate and the plate was incubated at 37° C. overnight in the presence of 5% CO2. 50 μl of a solution containing the compound (11) or the compound (14) at a concentration of 10 mM or 5 mM in water, 5 μl of a solution containing the compound (7) at a concentration of 50 mM or 25 mM in dimethyl sulfoxide, or 5 μl of a solution containing the compound (17) at a concentration of 100 mM or 50 mM in dimethyl sulfoxide was added to the well. The plate was incubated for 12 hours. A positive control for heme oxygenase 1 induction in which 5 μl of 3 mM solution of 15-deoxy-Δ12,14 prostaglandin J2 (Cayman Chemical, 18570) in dimethyl sulfoxide was added, and a negative control in which water was added were provided. The cells were recovered by detaching the cells from the plate using a scraper and suspended in 0.1 M tris-HCl buffer (pH 7.5) containing 0.05 mM pepstatin A (Sigma, P5318), 0.2 mM leupeptin (Sigma, L2884), 1 mM phenylmethylsulfonyl fluoride (Nacalai Tesque, 273-27), 10 mM ethylenediaminetetraacetic acid disodium salt and 0.1% Triton X-100. A supernatant obtained by centrifuging the suspension after freezing and thawing was used as a protein fraction. The content of protein in the protein fraction was determined using Micro BCA Protein Assay Reagent (a product of Pierce sold by Takara Shuzo, P7411). A sample from the protein fraction prepared as described above was mixed with an equal volume of 0.125 M tris-hydrochloride buffer (pH 6.8) containing 4% sodium lauryl sulfate (SDS), 2% 2-mercaptoethanol, 0.001% Bromophenol Blue and 20% glycerol. After treatment at 100° C. for 5 minutes, a portion corresponding to 10 μg of protein was loaded on 12.5% SDS-polyacrylamide gel and electrophoresed at a constant current of 20 mA. After electrophoresis, the gel was transferred to a PVDF membrane (Millipore, IPVH000 10) at a constant voltage of 15 V for 25 minutes using a blotting buffer (containing 48 mM tris, 39 mM glycine, 20% methanol and 0.0375% SDS) and Trans-Blot SD Cell Semi-Dry blotting apparatus (Bio-Rad) according to the attached protocol. After transferring, the PVDF membrane was blocked in a solution of Block Ace (Dainippon Pharmaceutical, UK-B25) at 4 C overnight. After blocking, the membrane washed three times in phosphate buffered saline containing 0.1% Tween 20 for 15 minutes with gentle shaking. The membrane was reacted in phosphate buffered saline containing 10% Block Ace, 0.1% Tween 20 and 200 ng/ml of anti-heme oxygenase 1 antibody (N-19; Santa Cruz, sc-7696) at room temperature for 1 hour with gentle shaking, and then washed three times in phosphate buffered saline containing 0.1% Tween 20 for 15 minutes with gentle shaking. The membrane was reacted in phosphate buffered saline containing 10% Block Ace, 0.1% Tween 20 and 0.1% peroxidase-labeled rabbit anti-goat IgG (H+L) antibody (Zymed, 61-1620) at room temperature for 1 hour with gentle shaking, and then washed five times in phosphate buffered saline containing 0.1% Tween 20 for 15 minutes with gentle shaking. The PVDF membrane was stained using Western Blot Chemiluminescence Reagent Plus (a product of NEN Life Science Products sold by Daiichi Pure Chemicals, NEL103) according to the attached protocol and exposed to an X-ray film (Kodak, CAT165 1454). After exposure, the film was developed using FPM800 (Fuji Film).
The intensity of the band depended on the concentration of the sample. In the table, the intensity of the band for heme oxygenase 1 protein is expressed by the mark +. Specifically, − represents no band observed, and increase in the intensity of the band is represented as follows: +−<+<++.

SMILES	inhibition of prostaglandin E2 production induction by LPS [1]	Intensity of band for heme oxygenase 1 protein ([2]; final concentration of 50 μM)	Intensity of band for heme oxygenase 1 protein ([2]; final concentration of 100 μM)	Intensity of band for heme oxygenase 1 protein ([2]; final concentration of 25 μM)
O=C[C@H](O)[C@H]1OC[C@@H](O)[C@@H]1OCc1ccccc1 [Compound (17), 4-O-benzyl-3,6-anhydro-D-galactose]	inhibited the prostaglandin E2 production induction by LPS	+	+ +	
O=C[C@H](O)[C@H]1OC[C@@H](O)[C@@H]1OC(=O)c1ccccc1 [Compound (7), 4-O-benzoyl-3,6-anhydro-D-galactose]	inhibited the prostaglandin E2 production induction by LPS	+		+
OCC1OC(OC2C(CO)OC(OC3C(CO)OC(OC4C(O)COC4C(O)C(O)O)C(O)C3O)C(O)C2O)C(O)C(O)C1O [Compound (14), 4-O-β-maltotoriosyl-3,6-anhydro-D-galactose]	inhibited the prostaglandin E2 production induction by LPS	+	+ +	

From patent publication US6518302B1, “Remedies” (Takara Shuzo Co., Ltd., priority 1999, dated 2003)
